Data as given in patent US12414979B2, “Compositions and methods for treating Sjogren's syndrome” (Interlude Biopharma Co., priority 2019, dated 2025).
No end group written: not given here.

Test system: PAR-C10 cells
Assay: Trans-epithelial electrical resistance (TEER) assay of tight junction integrity in PAR-C10 monolayers treated with IFNγ and TNFα
Assay type: cell-based, rat
Settings: for prevention of cytokine-induced drop in TEER: co-incubation with IFNγ and TNFα, larazotide acetate 1 mM and 5 mM, other compounds 5 mM and 10 mM, FIG. 1-3
Description: Specifically, an in vitro assay system to measure tight junction integrity was established using PAR-C10 cells, an immortalized rat acinar epithelial cell line, which mimic the biochemical and functional characteristics of primary salivary gland acinar cells. PAR-C10 cells form a monolayer of cuboidal cells, and are attached to each other with well-formed junctional complexes. PAR-C10 cells have been used to model the effect of inflammatory cytokines on tight junctions in vitro. Quissell et al., (1998) In Vitro Cell. Dev. Biol. Anim. 34: 58-67; Baker et al., Am. J. Cell Physiol. 295:C1191-1201. The cells were seeded on permeable supports in 12 well plates and cultured to form monolayers. The trans-epithelial electrical resistance (TEER) across the epithelial monolayer was measured to evaluate formation of tight junction between the cells. Three ng/ml of each pro-inflammatory cytokines, interferon gamma (IFNγ) and tumor necrosis factor alpha (TNFα) were added to the monolayers and incubated for 24 hours in order to cause tight junction disruption. Larazotide acetate (1 mM and 5 mM) or any one of 4-Aminosalicylic acid (4-ASA), 4-Amino-phenyl-acetic acid (4-APAA), and 4-Acetyl amino-phenyl-acetic acid (4-Ac APAA) (5 or 10 mM) of was added to the apical surface and the cells allowed to grow for an additional 24 hours. The compounds were dissolved in dimethyl sulfoxide and added to the culture media to obtain a final concentration of 5 mM and 10 mM each.
TEER measurements were used to determine the effect of larazotide acetate (1 or 5 mM) and other anti-inflammatory compounds (4-Aminosalicylic acid (4-ASA), 4-Amino-phenyl-acetic acid (4-APAA), and 4-Acetyl amino-phenyl-acetic acid (4-Ac APAA)) (5 or 10 mM) on tight junctions, in the presence of cytokines. To determine a therapeutic effect, the cells were pre-treated with cytokines, and the ability of larazotide acetate (1 or 5 mM) or 4-ASA, 4-APAA, and 4-Ac APAA (each at 5 or 10 mM) to reverse junctional disruption was evaluated. Wells not treated with cytokines were used as controls. p values were determined by Kruskal Wallis tests, and adjusted p values were determined by Dunns post test.

Row | Compound | prevention of cytokine-induced drop in TEER | prevention of cytokine induced disruption of tight junctions (TEER) (5 mM concentration, 2 independent experiments, FIG. 2) | reversal of cytokine-mediated drop in TEER (monolayers incubated with IFNγ and TNFα for 24 hours, then larazotide acetate (1 mM and 5 mM) on apical surface for additional 24 hours, FIG. 4)
1 | CC(=O)Nc1ccc(CC(=O)O)cc1 [4-Acetyl amino-phenyl-acetic acid, (4-acetylaminophenyl)-acetic acid, reference compound] | significantly prevent a drop in TEER | – | –
2 | Nc1ccc(CC(=O)O)cc1 [4-Amino-phenyl-acetic acid, 4-aminophenylacetic acid] | significantly prevent a drop in TEER | – | –
3 | Nc1ccc(C(=O)O)c(O)c1 [4-Aminosalicylic acid, reference compound] | significantly prevent a drop in TEER | – | –
4 | GGVLVQPG [larazotide acetate] | significantly prevent a drop in TEER | can reproducibly prevent cytokine induced disruption of tight junctions | able to reverse the cytokine-mediated drop in TEER
